In publication PMC8911550, “The Effects of Side-Chain Configurations of a Retro–Inverso-Type Inhibitor on the Human T-Cell Leukemia Virus (HTLV)-1 Protease” (Molecules, 2022):
Numbered stars: 1 amine (or outer) side, 2 acyl side, 3 side chain; on linkers, the order of the positions; unused ones are H or OH. Square brackets hold non-standard residues; d marks the D form. Ends that are not written are not given here. Peptide text beside a SMILES is read from it. X1 = CC(C)C[C@H](C(=O)[*:2])[C@H](O)C[C@H]1CCCN1[*:1]; d(aIle) = CC[C@H](C)[C@@H](N)C(=O)O; aIle = CC[C@@H](C)[C@H](N)C(=O)O

Assays:
HTLV-1 protease = conditions: ref [20]; cited from earlier work
[1] = target: T1, recombinant HTLV-1 protease (1-116, L40I) (Human T-cell leukemia virus 1, UniProt P10274, L489I); assay: biochemical; type: biochemical, human T-cell leukemia virus type 1 (HTLV-1); conditions: for inhibitory activity relative to RI-inhibitor 3: effect of D-allo-Ile replacement, RI-inhibitor 3 as reference, recombinant protease
T1 construct: examined using the recombinant HTLV-1 protease (1-116, L40I) and a substrate dodecapeptide; made in house; host or cells: E. coli BL21(DE3)
T1 sequence (P10274 450-565 L489I): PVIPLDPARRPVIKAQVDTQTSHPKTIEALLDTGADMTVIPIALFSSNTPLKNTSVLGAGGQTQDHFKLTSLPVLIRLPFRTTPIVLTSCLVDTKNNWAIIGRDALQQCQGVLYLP
Protocol: The reaction mixture was directly analyzed by analytical HPLC with a C18 reversed-phase column. Each IC50 value of the RI-type inhibitor was obtained from the sigmoidal dose–response curve (Figure S6) calculated from the decrease in substrate concentration.
The reaction mixture was analyzed on a Cosmosil 5C18-ARII column (4.6 × 150 mm), employing a linear gradient of CH3CN (10–40%, 30 min) in aqueous 0.1% TFA. Each IC50 value was obtained from a sigmoidal dose–response curve obtained from the decrease in the substrate in the reaction mixture (Figure S3). Each experiment was repeated three times.

[2] = system: recombinant HTLV-1 protease; assay: Cleavage of allo-Ile-containing substrates by recombinant HTLV-1 protease, analytical HPLC; type: biochemical, human T-cell leukemia virus type 1 (HTLV-1); conditions: decrease in substrate by analytical HPLC, Figure 3
Protocol: Each synthesized substrate (4–6) was then treated with the recombinant HTLV-1 protease, and the decrease in each substrate level was monitored using analytical HPLC [15].
Figure 3 Cleavage reaction of the substrates containing allo-Ile residues by the HTLV-1 protease: blue, original substrate; orange, substrate 4; gray, substrate 5; yellow, substrate 6.

Compound | IC50 [1] [µM] | inhibitory activity relative to RI-inhibitor 3 [1] | cleavage rate compared with original substrate, in words [2] | also measured
C[C@@H](NC(=O)[C@H]1N(C(=O)[C@@H](O)[C@H](Cc2ccccc2)NC(=O)[C@@H](NC(=O)[C@@H](NC(=O)CN2CCOCC2)c2ccccc2)C(C)(C)C)CSC1(C)C)C(C)(C)C [KNI-10729] | – | – | – | inhibition at 50 nM (HTLV-1 protease): 79%
CC[C@@H](C)[C@@H](NC(=O)[C@@H](CC(C)C)[C@H](O)C[C@H]1CCCN1C(=O)[C@H](NC(C)=O)[C@H](C)CC)C(=O)N[C@@H](C(=O)N1CCC[C@@H]1C(=O)N1CCC[C@@H]1C(N)=O)C(C)C [RI-inhibitor 3] (Ac-[dI][X1][dI][dV][dP][dP]-NH2) | 240 | – | – | –
CC[C@@H](C)[C@@H](NC(=O)[C@@H](CC(C)C)[C@H](O)C[C@H]1CCCN1C(=O)[C@H](NC(C)=O)[C@@H](C)CC)C(=O)N[C@@H](C(=O)N1CCC[C@@H]1C(=O)N1CCC[C@@H]1C(N)=O)C(C)C [RI-inhibitor 8] (Ac-[d(aIle)][X1][dI][dV][dP][dP]-NH2) | 110 | doubled the inhibitory activity | – | –
CC[C@@H](C)[C@@H](NC(C)=O)C(=O)N1CCC[C@@H]1C[C@@H](O)[C@H](CC(C)C)C(=O)N[C@@H](C(=O)N[C@@H](C(=O)N1CCC[C@@H]1C(=O)N1CCC[C@@H]1C(N)=O)C(C)C)[C@@H](C)CC [RI-inhibitor 9] (Ac-[dI][X1][d(aIle)][dV][dP][dP]-NH2) | 130 | doubled the inhibitory activity | – | –
CC[C@H](C)[C@@H](NC(=O)[C@@H](CC(C)C)[C@H](O)C[C@H]1CCCN1C(=O)[C@H](NC(C)=O)[C@@H](C)CC)C(=O)N[C@@H](C(=O)N1CCC[C@@H]1C(=O)N1CCC[C@@H]1C(N)=O)C(C)C [RI-inhibitor 10] (Ac-[d(aIle)][X1][d(aIle)][dV][dP][dP]-NH2) | 85 | tripled the inhibitory activity | – | –
substrate 4: substrate 4 containing an allo-Ile residue at the prime site (9-allo-Ile) (KGPPVILP[aIle]QAP-NH2; N-terminus assumed; SMILES CC[C@@H](C)[C@H](NC(=O)[C@@H]1CCCN1C(=O)[C@H](CC(C)C)NC(=O)[C@@H](NC(=O)[C@@H](NC(=O)[C@@H]1CCCN1C(=O)[C@@H]1CCCN1C(=O)CNC(=O)[C@@H](N)CCCCN)C(C)C)[C@@H](C)CC)C(=O)N[C@@H](CCC(N)=O)C(=O)N[C@@H](C)C(=O)N1CCC[C@H]1C(N)=O) | – | – | cleaved at a slightly lower rate than the original substrate | –
substrate 5: substrate 5 containing an allo-Ile residue at the non-prime site (6-allo-Ile) (KGPPV[aIle]LPIQAP-NH2; N-terminus assumed; SMILES CC[C@@H](C)[C@H](NC(=O)[C@@H](NC(=O)[C@@H]1CCCN1C(=O)[C@@H]1CCCN1C(=O)CNC(=O)[C@@H](N)CCCCN)C(C)C)C(=O)N[C@@H](CC(C)C)C(=O)N1CCC[C@H]1C(=O)N[C@H](C(=O)N[C@@H](CCC(N)=O)C(=O)N[C@@H](C)C(=O)N1CCC[C@H]1C(N)=O)[C@@H](C)CC) | – | – | clearly showed a lower cleavage rate than the original substrate | –
substrate 6: substrate 6 containing two allo-Ile residues at both sites (6,9-allo-Ile) (KGPPV[aIle]LP[aIle]QAP-NH2; N-terminus assumed; SMILES CC[C@@H](C)[C@H](NC(=O)[C@@H](NC(=O)[C@@H]1CCCN1C(=O)[C@@H]1CCCN1C(=O)CNC(=O)[C@@H](N)CCCCN)C(C)C)C(=O)N[C@@H](CC(C)C)C(=O)N1CCC[C@H]1C(=O)N[C@H](C(=O)N[C@@H](CCC(N)=O)C(=O)N[C@@H](C)C(=O)N1CCC[C@H]1C(N)=O)[C@H](C)CC) | – | – | clearly showed a lower cleavage rate than the original substrate | –
